Measurements taken from PMC5929572, “Nucleobases and corresponding nucleosides display potent antiviral activities against dengue virus possibly through viral lethal mutagenesis” (PLoS Neglected Tropical Diseases, 2018).

How the values were obtained:
[1] = system: DENV-2; assay: Sequence analysis of prM/E region clones from passaged virus (mutation frequency); assay type: cell-based, DENV-2 New Guinea C strain
Description: For qPCR determination of viral genome copy number, viral RNA was isolated from 140 μL of drug-treated or DMSO-treated infected culture supernatant using QIAamp Viral RNA mini kit (Qiagen), following manufacturer’s protocol. Viral RNA was quantified using the TaqMan RNA-to-CT 1-Step qPCR Kit (Applied Biosystems). Primers used for qPCR were 5’-[…]-3’ (forward) and 5’-[…]-3’ (reverse) amplifying a region numbering 8928–8988 in the genome (numbering starting from the beginning of genome, accession number KM204118). The qPCR FAM probe sequence is 5’-[…]-3’. Serial 10-fold dilutions of plasmid containing the NS5 gene of DENV were used to generate a standard curve for the quantification of viral RNA genome copy number based on cycle threshold (CT) values. The limit of detection for NS5 plasmid dilutions was 30 copies (S1 Fig). […] Statistical analysis via GraphPad Prism 5 software. To obtain sequence data from viral RNA isolated at each passage, cDNA was generated via M-MLV reverse transcriptase and random hexamers (New England Biolab Inc.) per manufacturer’s instructions. An approximately 1600-base fragment covering membrane protein (prM) and envelop protein gene (E) of DENV-2 viral genome was amplified using PfuUltra II Fusion HS DNA polymerase (Agilent) with primers prMEfor (5'- […]-3') and prMErev (5'- […] -3'). PCR products were purified using Qiaquick PCR purification kit (Qiagen) and then digested with EcoRI and ligated into pcDNA3.1 for sequencing. Sequence for approximately 40–50 individual clones per sample was obtained from the University of Minnesota Genomics Center. Sequences were aligned over a 980-base region that had adequate quality sequencing reads for all clones. Only mutations present in both the forward and reverse reads of a clone were counted. All incidence-based determinants of mutation frequency (Mf min, Mf max, Mfe) were calculated as described.
Virus was passaged on Huh-7 cells supplemented with 200 μM 3a, 500 μM 3b or DMSO (0.5%). Huh-7 cells were seeded in 12-well plates and inoculated with DENV-2 as described for Titer reduction experiments above except an m.o.i. of 0.01 was used. After 3 days of compound treatment, 50 μL of the harvested supernatant was used to inoculate fresh Huh-7 cells in the continued presence of compound. The virus titer in the harvested supernatant was determined by plating ten-fold serial dilutions onto single wells of a 24-well plate. The wells were washed and overlaid as described in the Titer reduction assay above. If no plaques were obtained in any of the harvested supernatant dilutions, the undiluted supernatant was used. If plaques were not detectable, the virus titer was considered to be at the limit of detection, 1 plaque (3.3 pfu/mL). Supernatant titer was determined from a single well where there were approximately 20–50 plaques when possible. This experiment was repeated three times at the compound concentrations listed.

[2] = Cell viability assay (MTS) in Huh-7 cells; assay type: cell-based; settings: human
Description: The sensitivity of the cell lines to the compounds was examined using the 3-(4,5-dimethylthiazol-2-yl)-5-(3-carboxymethoxyphenyl)-2-(4-sulfophenyl)-2H-tetrazolium (MTS)-based tetrazolium reduction CellTiter 96 Aqueous Non-Radioactive cell proliferation assay (Promega G5430). The compounds were initially tested at 10 and 50 μM final concentrations. Each plate also contained DMSO alone, medium alone, and an inhibitory compound, 6. DENV replicon or Huh-7 cells were plated at a density of 1,500 or 8 × 10^3 cells, respectively, per well in 96-well plates containing 100 μl of culture medium overnight. Compounds were added to triplicate wells in culture medium and incubated for an additional 72 h. MTS reagent was then added to each well and incubated at 37°C in a humidified 5% CO2 atmosphere. The plates were read at various time points at a wavelength of 490 nm using a Molecular Devices M5e plate reader. Mean values of triplicate wells were determined and compared to the mean value for the wells that received DMSO alone. For compounds selected for dose-response experiments, the CC50 was determined by comparing cell viability for eight serial dilutions of the compound and DMSO treated cells using GraphPad Prism software.

[3] = Cell viability assay (MTS) in DENV replicon cells; assay type: cell-based, baby hamster; settings: hamster, DENV replicon cells (BHK pD2-hRucPac-2ATG30), DENV replicon BHK cells, MTS, 72 h
[4] = system: DENV-2; assay: Virus passage in presence of compound, genome copy number by RT-qPCR (NS5); assay type: cell-based, DENV-2 New Guinea C strain; settings: 3b 500 μM, Huh-7, passage 5; limit of detection 30 copies
Description: For qPCR determination of viral genome copy number, viral RNA was isolated from 140 μL of drug-treated or DMSO-treated infected culture supernatant using QIAamp Viral RNA mini kit (Qiagen), following manufacturer’s protocol. Viral RNA was quantified using the TaqMan RNA-to-CT 1-Step qPCR Kit (Applied Biosystems). Primers used for qPCR were 5’-[…]-3’ (forward) and 5’-[…]-3’ (reverse) amplifying a region numbering 8928–8988 in the genome (numbering starting from the beginning of genome, accession number KM204118). The qPCR FAM probe sequence is 5’-[…]-3’. Serial 10-fold dilutions of plasmid containing the NS5 gene of DENV were used to generate a standard curve for the quantification of viral RNA genome copy number based on cycle threshold (CT) values. […] Sequences were aligned over a 980-base region that had adequate quality sequencing reads for all clones. Only mutations present in both the forward and reverse reads of a clone were counted. All incidence-based determinants of mutation frequency (Mf min, Mf max, Mfe) were calculated as described.
(§1) Virus was passaged on Huh-7 cells supplemented with 200 μM 3a, 500 μM 3b or DMSO (0.5%). […] The virus titer in the harvested supernatant was determined by plating ten-fold serial dilutions onto single wells of a 24-well plate. […] Supernatant titer was determined from a single well where there were approximately 20–50 plaques when possible. […]

[5] = system: DENV-2; assay: Titer reduction assay in Huh-7 cells, plaque assay on Vero cells; assay type: cell-based, DENV-2 New Guinea C strain; settings: Dengue virus, DENV2, m.o.i. 0.2, 72 h
Description: (§2) Huh-7 cells were seeded in 12-well plates at a density of 4×10^5 cells per well in 1 mL culture medium. The next day, cells were washed and inoculated with DENV at a multiplicity of infection (m.o.i.) of 0.2 in 500μl infection medium (MEM containing 2% FBS and 10 mM HEPES). The inoculum was removed after 1h, cells were washed with PBS and then incubated in 1 mL MEM, 2% FBS, 1% pen/strep plus compound for 72 h. Viral supernatants were clarified by centrifugation for 5 min at 1500×g and aliquoted and stored at -80°C. Viral titers were determined using a plaque assay on Vero cells. Briefly, confluent Vero cell monolayers in 24-well plates were incubated at 37°C for 1 h with duplicate 300 μl samples of 10-fold serial dilutions of viral supernatants. The cells were then washed to remove unbound viral particles and overlaid with 500ul MEM containing 1.3% methylcellulose, 5% FBS and 10mM HEPES. After 5 days of incubation at 37°C and 5% CO2, cells were washed with PBS, fixed, and stained using 1% Giemsa. Infectious virus titer (pfu/mL) was determined using the following formula: number of plaques × dilution factor × (1/inoculation volume). The viral titer was presented as the mean of duplicate samples from a dilution yielding approximately 20–50 plaques per well.

[6] = system: DENV-2; assay: Virus passage in presence of compound, supernatant titer by plaque assay; assay type: cell-based, DENV-2 New Guinea C strain; settings: 3b 500 μM, Huh-7, passages 4 and 5; limit of detection 3.3 pfu/mL
Description: as §2, with “After 5 days of incubation at 37°C and 5% CO2, cells were washed with PBS, fixed, and stained using 1% Giemsa.” left out, “The viral titer was presented as the mean of duplicate samples from a dilution yielding approximately 20–50 plaques per well.” left out
as §1

[7] = system: DENV replicon cells (BHK pD2-hRucPac-2ATG30); assay: Cell viability assay (MTS) in DENV replicon cells; assay type: cell-based, baby hamster
[8] = system: DENV-2 viral replicon; assay: microbe, parasite or virus in culture; assay type: cell-based; settings: Dengue virus, DENV2, BHK, 72 h
Description: Compounds were evaluated for antiviral properties using BHK cells containing a DENV-2 viral replicon. 1.5 × 10^3 replicon-containing cells per well were plated in white opaque 96-well plates in the absence of antibiotic selection and the next day, compounds dissolved in DMSO were added to triplicate wells in culture medium. The compounds were initially tested at 10 and 50 μM final concentrations and each plate also contained DMSO alone, medium alone, and 6. Three days later, medium was replaced with a 1:1000 dilution of ViVi-Ren Live Cell Substrate (Promega) in DME minus phenol red and 10% FBS. Luminescence was measured with a Molecular Devices M5e plate reader. Mean values of triplicate wells were determined and compared to the mean value for the wells that received DMSO alone. […] The EC50 was determined by comparing luciferase activity for eight serial dilutions of the compound and DMSO treated cells using GraphPad Prism software.

[9] = passage 2, 3a 200 μM, 3b 500 μM, Huh-7
[10] = passage 3, 3a 200 μM, 3b 500 μM, Huh-7

Compound: NC(=O)c1nccn([C@@H]2O[C@H](CO)[C@@H](O)[C@H]2O)c1=O [Compound 3b]
- number of mutations per clone compared to DMSO ([1]; 3a 200 μM passage 4, 3b 500 μM passage 3, p < 0.0001, Mann-Whitney U): significant difference
- Mf max (maximum mutation frequency) [1, 9]: 15.3 per 10,000 nucleotides
- Mf min (minimum mutation frequency) [1, 9]: 10.7 per 10,000 nucleotides
- Mfe (entity level mutation frequency) [1, 9]: 2.4 ×10^−3
- Number of clones with mutation/total [1, 9]: 22/34
- Number of different mutations [1, 9]: 33
- Number of haplotypes [1, 9]: 22
- Number of total mutations [1, 9]: 47
- Transition A→G, number of mutations [1, 9]: 6
- Transition C→U, number of mutations [1, 9]: 4
- Transition G→A, number of mutations [1, 9]: 6
- Transition U→C, number of mutations [1, 9]: 14
- Transversion G→U, number of mutations [1, 9]: 2
- Transversion U→G, number of mutations [1, 9]: 1
- Mf max (maximum mutation frequency) [1, 10]: 15.8 per 10,000 nucleotides
- Mf min (minimum mutation frequency) [1, 10]: 4.7 per 10,000 nucleotides
- Mfe (entity level mutation frequency) [1, 10]: 2.2 ×10^−3
- Number of clones with mutation/total [1, 10]: 22/35
- Number of different mutations [1, 10]: 15
- Number of haplotypes [1, 10]: 17
- Number of total mutations [1, 10]: 50
- Transition A→G, number of mutations [1, 10]: 4
- Transition C→U, number of mutations [1, 10]: 6
- Transition G→A, number of mutations [1, 10]: 1
- Transition U→C, number of mutations [1, 10]: 3
- Transversion U→A, number of mutations [1, 10]: 1
- CC50 at 72 h [2]: > 1000 µM
- CC50 at 72 h [3]: > 1000 µM
- genomic RNA in supernatant [4]: undetectable
- EC50 [5]: 60 ± 22 µM
- infectious virus in supernatant [6]: undetectable

Compound: Nc1nc(N)c2[nH]cnc2n1 [Compound 4a, 2,6-diaminopurine]
- CC50 at 72 h [3]: 13 ± 2.1 µM

Compound: Nc1nc(N)c2ncn([C@@H]3O[C@H](CO)[C@@H](O)[C@H]3O)c2n1 [Compound 4b, 2-Aminoadenosine]
- toxicity, in words ([7]; DENV replicon cells): too toxic
- CC50 at 72 h [3]: 31 ± 1.4 µM

Compound: NC(=O)c1nc(F)c[nH]c1=O [Compound 5a, 6-fluoro-3-hydroxypyrazine-2-carboxamide, reference compound]
- EC50 [8]: 110 ± 30 µM
- CC50 ([7]; DENV replicon BHK cells, MTS, 72 h): > 665 µM
- CC50 at 72 h [3]: > 1000 µM

Compound: COc1c(C)c2c(c(O)c1C/C=C(\C)CCC(=O)O)C(=O)OC2 [Compound 6, mycophenolic acid, reference compound]
- EC50 [8]: 0.3 ± 0.03 µM
- CC50 at 72 h [3]: 1.4 ± 0.4 µM
